Values after ≈ are worked out from the molar mass of the structure shown. Read-outs that look alike come from different tables or passages of the source.
Legend:
[1] = Test 1: urinary recovery after oral administration; type: in vivo; details: mice (ICR-strain, female), 300 mcg per mouse, urine collected until 5 hours after administration, microbial assay, molar percentage
Method: To mice (ICR-strain, female, 4 weeks-aged) was orally administered a new cephalosporin compound according to this invention at a dosage of 300 mcg per mouse. Until the end of 5 hours after oral administration of the test cephalosporin compound, all the volumes of urine discharged by the treated mice were collected together, and the total amount of the test compound remaining in the collected urine was measured by a microbial assay method. The urinary recovery of the test compound was calculated in terms of percentage of the molar quantity of the test compound as recovered, against the molar quantity of the test compound as orally given.

[2] = system: Rms823/Escherichia coli K-12 W3630; test: MIC, serial dilution method in Müller-Hinton agar; type: cell-based; details: 18 h
Method: (§1) The antibacterial activities of the cephalosporin compounds of the formula (I) according to this invention, specifically the final product compounds of the Examples 1 to 6 given hereinafter, were assayed in term of their minimum inhibitory concentrations (MIC; mcg/ml) against various test bacteria, as determined according to a standard serial dilution method in Müller-Hinton agar medium (a product of Difico company), where the incubation was made at 37°C for 18 hours. For the comparison purpose, the antibacterial spectrum of a known compound, Cefalexin (abbreviated as CEX) was also assayed in the same way as above.

[3] = system: Salmonella typhimurium IID971; test: MIC, serial dilution method in Müller-Hinton agar; type: cell-based; details: Salmonella enterica
Method: as §1

[4] = system: Micrococcus luteus ATCC9341; test: MIC, serial dilution method in Müller-Hinton agar; type: cell-based; details: 37°C, 18 hours
Method: as §1

[5] = system: Salmonella enteritidis G14; test: MIC, serial dilution method in Müller-Hinton agar; type: cell-based; details: Salmonella enterica; Salmonella enteritidis G14; Müller-Hinton agar, 37°C, 18 hours; read-out: MIC
Method: as §1

[6] = system: Klebsiella pneumoniae PCI602; test: MIC, serial dilution method in Müller-Hinton agar; type: cell-based
Method: as §1

[7] = system: Salmonella paratyphi 1015; test: MIC, serial dilution method in Müller-Hinton agar; type: cell-based; details: Salmonella enterica, 37°C, 18 hours
Method: as §1

[8] = system: Rms139/MI Pseudomonas aeruginosa; test: MIC, serial dilution method in Müller-Hinton agar; type: cell-based; details: 18 h
Method: as §1

[9] = system: Rte16/Escherichia coli K-12 W3630; test: MIC, serial dilution method in Müller-Hinton agar; type: cell-based; details: 18 h
Method: as §1

[10] = system: Bacillus subtilis ATCC6633; test: MIC, serial dilution method in Müller-Hinton agar; type: cell-based; details: 37°C, 18 hours
Method: as §1

[11] = system: Proteus morganii IFO3848; test: MIC, serial dilution method in Müller-Hinton agar; type: cell-based; details: Morganella morganii
Method: as §1

[12] = system: Klebsiella oxytosa GN10560; test: MIC, serial dilution method in Müller-Hinton agar; type: cell-based; details: Klebsiella oxytosa GN10560, cefuroximase producing strain, 37°C, 18 hours
Method: as §1

[13] = system: Salmonella typhi 901; test: MIC, serial dilution method in Müller-Hinton agar; type: cell-based; details: Salmonella enterica, 18 h
Method: as §1

[14] = system: Staphylococcus aureus FDA209P JC-1; test: MIC, serial dilution method in Müller-Hinton agar; type: cell-based
Method: as §1

[15] = system: Rms213/Escherichia coli K-12 W3630; test: MIC, serial dilution method in Müller-Hinton agar; type: cell-based; details: 18 h
Method: as §1

[16] = system: Escherichia coli NIHJ-JS-2; test: MIC, serial dilution method in Müller-Hinton agar; type: cell-based; details: NIHJJS2; Escherichia coli NIHJ-JS-2; Müller-Hinton agar, 37°C, 18 hours; read-out: MIC
Method: as §1

[17] = system: Salmonella schottmulleri 8006; test: MIC, serial dilution method in Müller-Hinton agar; type: cell-based; details: 37°C, 18 hours
Method: as §1

[18] = system: Proteus rettgeri IFO3850; test: MIC, serial dilution method in Müller-Hinton agar; type: cell-based; details: Providencia rettgeri
Method: as §1

[19] = system: Escherichia coli K-12 C600; test: MIC, serial dilution method in Müller-Hinton agar; type: cell-based; details: K12C600; Escherichia coli K-12 C600; Müller-Hinton agar, 37°C, 18 hours; read-out: MIC
Method: as §1

[20] = system: Rms212/Escherichia coli K-12 W3630; test: MIC, serial dilution method in Müller-Hinton agar; type: cell-based; details: 18 h
Method: as §1

[21] = system: Staphylococcus aureus MS353; test: MIC, serial dilution method in Müller-Hinton agar; type: cell-based
Method: as §1

[22] = system: Staphylococcus aureus Terajima; test: MIC, serial dilution method in Müller-Hinton agar; type: cell-based; details: 37°C, 18 hours
Method: as §1

[23] = system: Pseudomonas aeruginosa IFO3445; test: MIC, serial dilution method in Müller-Hinton agar; type: cell-based; details: 37°C, 18 hours
Method: as §1

[24] = system: Proteus vulgaris OX-19; test: MIC, serial dilution method in Müller-Hinton agar; type: cell-based; details: OX19, 37°C, 18 hours
Method: as §1

[25] = Staphylococcus aureus, MS353, 18 h
[26] = Klebsiella pneumoniae PCI602, Müller-Hinton agar, 37°C, 18 hours, read-out: MIC
[27] = Staphylococcus aureus, FDA209P, 18 h

Row | Structure (SMILES) | dose excreted [1] | MIC [2] | MIC ([3]; 18 h) | MIC [4] | MIC [5] | MIC [7] | MIC [8] | MIC [9] | MIC [10] | MIC ([11]; IFO3848, 18 h) | MIC [12] | MIC [13] | MIC [15] | MIC [16] | MIC [17] | MIC [19] | MIC [20] | MIC [22] | MIC [23] | MIC [24] | further results
1 | C/C=C\C1=C(C(=O)O)N2C(=O)C(NC(=O)[C@H](N)c3ccc(COC)c(OC)c3)[C@H]2SC1 (stereo partly drawn) [Example 6 Compound, 7-{(R)-2-amino-2-(3-methoxy-4-methoxymethylphenyl)acetamido}-3-{(Z)-1-propenyl}-3-cephem-4-carboxylic acid] | 32.9% | > 100 µg/mL | 12.5 µg/mL (≈ 27.9 µM) | 0.025 µg/mL (≈ 0.0559 µM) | 6.25 µg/mL (≈ 14 µM) | 3.13 µg/mL (≈ 6.99 µM) | > 100 µg/mL | 25 µg/mL (≈ 55.9 µM) | 0.05 µg/mL (≈ 0.112 µM) | 1.56 µg/mL (≈ 3.49 µM) | > 100 µg/mL | 12.5 µg/mL (≈ 27.9 µM) | 12.5 µg/mL (≈ 27.9 µM) | 25 µg/mL (≈ 55.9 µM) | 1.56 µg/mL (≈ 3.49 µM) | 6.25 µg/mL (≈ 14 µM) | 100 µg/mL (≈ 223 µM) | 0.1 µg/mL (≈ 0.223 µM) | > 100 µg/mL | 100 µg/mL (≈ 223 µM) | MIC ([6]; Klebsiella pneumoniae, PCI602, 18 h): 1.56 µg/mL (≈ 3.49 µM); MIC ([14]; Staphylococcus aureus FDA209P JC-1, Müller-Hinton agar, 37°C, 18 hours, read-out: MIC): 0.78 µg/mL (≈ 1.74 µM); MIC ([18]; IFO3850, 18 h): 12.5 µg/mL (≈ 27.9 µM); MIC [21, 25]: 1.56 µg/mL (≈ 3.49 µM)
2 | C/C=C\C1=C(C(=O)O)N2C(=O)C(NC(=O)[C@H](N)c3ccc(CO)c(O)c3)[C@H]2SC1 (stereo partly drawn) [Example 4 Compound, 7-{(R)-2-amino-2-(3-hydroxy-4-hydroxymethylphenyl)acetamido)-3-{(Z)-1-propenyl)-3-cephem-4-carboxylic acid] | 58.8% | 100 µg/mL (≈ 238 µM) | 1.56 µg/mL (≈ 3.72 µM) | 0.1 µg/mL (≈ 0.238 µM) | 0.78 µg/mL (≈ 1.86 µM) | 1.56 µg/mL (≈ 3.72 µM) | > 100 µg/mL | 12.5 µg/mL (≈ 29.8 µM) | 0.2 µg/mL (≈ 0.477 µM) | 1.56 µg/mL (≈ 3.72 µM) | > 100 µg/mL | 0.78 µg/mL (≈ 1.86 µM) | 6.25 µg/mL (≈ 14.9 µM) | 6.25 µg/mL (≈ 14.9 µM) | 1.56 µg/mL (≈ 3.72 µM) | 3.13 µg/mL (≈ 7.46 µM) | 12.5 µg/mL (≈ 29.8 µM) | 0.1 µg/mL (≈ 0.238 µM) | > 100 µg/mL | 25 µg/mL (≈ 59.6 µM) | MIC [6, 26]: 0.78 µg/mL (≈ 1.86 µM); MIC [14, 27]: 1.56 µg/mL (≈ 3.72 µM); MIC ([18]; IFO3850, 18 h): 1.56 µg/mL (≈ 3.72 µM); MIC [21, 25]: 1.56 µg/mL (≈ 3.72 µM)
3 | C/C=C\C1=C(C(=O)O)N2C(=O)C(NC(=O)[C@H](N)c3ccc(CO)c(OC)c3)[C@H]2SC1 (stereo partly drawn) [Example 5 Compound, 7-{(R)-2-amino-2-(4-hydroxymethyl-3-methoxyphenyl)acetamido}-3-{(Z)-1-propenyl}-3-cephem-4-carboxylic acid] | 47.9% | > 100 µg/mL |  | 0.025 µg/mL (≈ 0.0577 µM) | 0.78 µg/mL (≈ 1.8 µM) | 0.78 µg/mL (≈ 1.8 µM) | 100 µg/mL (≈ 231 µM) | 3.13 µg/mL (≈ 7.22 µM) | 0.05 µg/mL (≈ 0.115 µM) |  | > 100 µg/mL | 1.56 µg/mL (≈ 3.6 µM) | 25 µg/mL (≈ 57.7 µM) | 6.25 µg/mL (≈ 14.4 µM) | 0.39 µg/mL (≈ 0.9 µM) | 3.13 µg/mL (≈ 7.22 µM) | 12.5 µg/mL (≈ 28.8 µM) | 0.1 µg/mL (≈ 0.231 µM) | > 100 µg/mL | 50 µg/mL (≈ 115 µM) | MIC ([3]; Salmonella typhimurium IID971, Müller-Hinton agar, 37°C, 18 hours, read-out: MIC): 3.13 µg/mL (≈ 7.22 µM); MIC [6, 26]: 0.78 µg/mL (≈ 1.8 µM); MIC ([11]; Proteus morganii IFO3848, Müller-Hinton agar, 37°C, 18 hours, read-out: MIC): 3.13 µg/mL (≈ 7.22 µM); MIC [14, 27]: 1.56 µg/mL (≈ 3.6 µM); MIC ([18]; Proteus rettgeri IFO3850, Müller-Hinton agar, 37°C, 18 hours, read-out: MIC): 3.13 µg/mL (≈ 7.22 µM); MIC ([21]; Staphylococcus aureus MS353, Müller-Hinton agar, 37°C, 18 hours, read-out: MIC): 0.78 µg/mL (≈ 1.8 µM)

— patent EP0321364A2, “Orally administrable cephalosporin derivatives, and the production and uses thereof” (ZAIDAN HOJIN BISEIBUTSU KAGAKU KENKYU KAI, priority 1987, dated 1989)
